A short description of this assay: Inhibition of CDC42.

These results are taken from BindingDB's records for doi:10.1016/j.bmcl.2010.04.069 (Boehringer Ingelheim Pharmaceuticals, 2010).

`O=C(Nc1cc2cc[nH]c(=O)c2cc1Cl)[C@@H]1CNC[C@H]1c1ccc(Cl)cc1` [(3S,4R)-N-(7-chloro-1-oxo-1,2-dihydroisoquinolin-6-yl)-4-(4-chlorophenyl)pyrrolidine-3-carboxamide]: the IC50 came out at 54 nM.
